The assay concerns the target Human recombinant DHX9 protein (Homo sapiens (Human), UniProt Q08211). Description: DHX9 ATPase assay (ADP-Glo). The class given is biochemical. The following applies: for IC50: read-out: DHX9 Biochemical Inflection Point.

The source of these data is patent publication US20240316047A1, “INHIBITORS OF RNA HELICASE DHX9 AND USES THEREOF” (ACCENT THERAPEUTICS, INC., priority 2022, published 2024).

Sequence of Human recombinant DHX9 protein (Q08211 whole entry): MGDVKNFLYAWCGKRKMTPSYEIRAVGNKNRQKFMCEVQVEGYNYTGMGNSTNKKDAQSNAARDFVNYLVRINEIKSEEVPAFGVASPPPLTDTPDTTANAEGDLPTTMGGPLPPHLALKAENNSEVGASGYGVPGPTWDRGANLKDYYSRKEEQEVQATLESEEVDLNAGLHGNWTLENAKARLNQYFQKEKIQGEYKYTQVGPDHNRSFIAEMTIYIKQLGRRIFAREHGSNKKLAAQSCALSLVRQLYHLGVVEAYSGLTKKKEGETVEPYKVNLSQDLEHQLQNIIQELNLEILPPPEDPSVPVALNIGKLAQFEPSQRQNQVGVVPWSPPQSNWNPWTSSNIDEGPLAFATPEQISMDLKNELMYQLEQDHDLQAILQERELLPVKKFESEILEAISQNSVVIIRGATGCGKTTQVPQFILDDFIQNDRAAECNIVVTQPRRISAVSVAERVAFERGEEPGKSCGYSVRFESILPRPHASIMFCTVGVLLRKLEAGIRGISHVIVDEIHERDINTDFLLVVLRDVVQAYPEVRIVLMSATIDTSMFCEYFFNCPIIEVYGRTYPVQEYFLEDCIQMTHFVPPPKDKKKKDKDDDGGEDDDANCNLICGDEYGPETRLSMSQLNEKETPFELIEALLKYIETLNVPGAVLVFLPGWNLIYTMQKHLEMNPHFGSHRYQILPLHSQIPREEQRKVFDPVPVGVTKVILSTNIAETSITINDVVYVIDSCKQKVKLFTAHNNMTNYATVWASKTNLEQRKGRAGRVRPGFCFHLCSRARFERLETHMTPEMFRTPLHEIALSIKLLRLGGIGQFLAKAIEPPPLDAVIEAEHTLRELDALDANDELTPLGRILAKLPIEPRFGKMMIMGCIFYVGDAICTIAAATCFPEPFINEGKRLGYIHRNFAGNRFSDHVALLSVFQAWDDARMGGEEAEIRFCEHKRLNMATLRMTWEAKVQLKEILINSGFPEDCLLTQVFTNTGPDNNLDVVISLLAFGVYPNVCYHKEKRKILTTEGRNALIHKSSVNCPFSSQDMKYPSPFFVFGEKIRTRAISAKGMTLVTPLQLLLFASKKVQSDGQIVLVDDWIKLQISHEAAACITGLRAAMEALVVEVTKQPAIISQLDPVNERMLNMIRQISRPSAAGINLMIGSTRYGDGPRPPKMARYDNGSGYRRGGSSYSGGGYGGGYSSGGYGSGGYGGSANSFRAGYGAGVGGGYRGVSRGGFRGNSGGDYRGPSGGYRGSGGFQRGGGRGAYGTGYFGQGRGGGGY

With `COC(=O)N1CCN(c2ccc(-c3cc(C(=O)Nc4cc(Cl)cc(NS(C)(=O)=O)c4)cn3C)nc2)CC1` [Example 596], the “DHX9 Biochemical Max Inhibition” value amounted to 72.2 and the IC50 is 0.0181 µM.

In the case of `Cn1cc(C(=O)Nc2cc(Cl)cc(NS(C)(=O)=O)c2)cc1-c1ncc(N2CC(F)(F)C2)cn1` [Example 597], the “DHX9 Biochemical Max Inhibition” value turned out to be 69.1 and the IC50 worked out at 0.022 µM.

With `Cn1cc(C(=O)Nc2cc(Cl)cc(NS(C)(=O)=O)c2)cc1-c1ncc(N2CC(F)C2)cn1` [Example 598], the “DHX9 Biochemical Max Inhibition” value was 72.1 and the IC50 turned out to be 0.0164 µM.

For the compound `Cn1cc(C(=O)Nc2cc(Cl)cc(NS(C)(=O)=O)c2)cc1-c1ncc(N2CC(F)(F)C2)cc1F` [Example 599], the “DHX9 Biochemical Max Inhibition” value is given as 88.7 and the IC50 was 0.0192 µM.

In the case of `Cc1cc(N2CCC(F)(F)CC2)cnc1-c1cc(C(=O)Nc2cc(Cl)cc(NS(C)(=O)=O)c2)cn1C` [Example 600], the “DHX9 Biochemical Max Inhibition” value was 79.3 and the IC50 is 0.0416 µM.

As to `COC(=O)N1CCN(c2cnc(-c3cc(C(=O)Nc4cc(Cl)cc(NS(C)(=O)=O)c4)sc3C)c(C)c2)CC1` [Example 601], the “DHX9 Biochemical Max Inhibition” value was 72.2 and the IC50 amounted to 0.0212 µM.

Consider `Cc1cc(N2CCC(F)(F)CC2)cnc1-c1cc(C(=O)Nc2cc(Cl)cc(NS(C)(=O)=O)c2)sc1C` [Example 602], for which the “DHX9 Biochemical Max Inhibition” value is listed as 92.4 and the IC50 came to 0.0578 µM.

Regarding `CN1C(=O)N(c2ccc(-c3cc(C(=O)Nc4cc(Cl)cc(NS(C)(=O)=O)c4)cn3C)nc2)C(=O)C1(C)C` [Example 603], the “DHX9 Biochemical Max Inhibition” value is listed as 83.4 and the IC50 came to 0.0109 µM.

In the case of `Cn1cc(C(=O)Nc2cc(Cl)cc(NS(C)(=O)=O)c2)cc1-c1ncc(F)cc1-c1cncc(F)c1` [Example 604, N-(3-chloro-5-methanesulfonamidophenyl)-5-{5,5′-difluoro-[3,3′-bipyridin]-2-yl}-1-methylpyrrole-3-carboxamide], the “DHX9 Biochemical Max Inhibition” value was found to be 69.1 and the IC50 amounted to 0.037 µM.

With `Cc1sc(C(=O)Nc2cc(Cl)cc(NS(C)(=O)=O)c2)cc1-c1ncc(F)cc1-c1ccn(C)c(=O)c1` [Example 605], the “DHX9 Biochemical Max Inhibition” value is recorded as 67.5 and the IC50 turned out to be 0.0246 µM.

As for `Cc1sc(C(=O)Nc2cc(Cl)cc(NS(C)(=O)=O)c2)cc1-c1ncc(F)cc1-c1ccc(=O)n(C)c1` [Example 606], the “DHX9 Biochemical Max Inhibition” value was 71.8 and the IC50 turned out to be 0.026 µM.

For the compound `Cc1sc(C(=O)Nc2cc(Cl)cc(NS(C)(=O)=O)c2)cc1-c1ncc(F)cc1-c1cncc(F)c1` [Example 607], the “DHX9 Biochemical Max Inhibition” value is 75.9 and the IC50 was 0.0131 µM.

For the compound `Cc1ncccc1-c1cc(F)cnc1-c1cc(C(=O)Nc2cc(Cl)cc(NS(C)(=O)=O)c2)sc1C` [Example 608], the “DHX9 Biochemical Max Inhibition” value is recorded as 75.4 and the IC50 came to 0.0072 µM.

For the compound `Cc1sc(C(=O)Nc2cc(Cl)cc(NS(C)(=O)=O)c2)cc1-c1ncc(OC2CN(C)C2)cn1` [Example 609, N-(3-chloro-5-methanesulfonamidophenyl)-5-methyl-4-{5-[(1-methylazetidin-3-yl)oxy]pyrimidin-2-yl}thiophene-2-carboxamide], the “DHX9 Biochemical Max Inhibition” value is reported as 72.7 and the IC50 came to 0.003 µM.

With `CN1CC(Oc2cnc(-c3cc(C(=O)Nc4cc(Cl)cc(NS(C)(=O)=O)c4)cn3C)c(F)c2)C1` [Example 611], the “DHX9 Biochemical Max Inhibition” value was determined as 65.3 and the IC50 stood at 0.0038 µM.

As to `CN1CC(Oc2cnc(-c3cc(C(=O)Nc4cc(Cl)cc(NS(C)(=O)=O)c4)cn3CC(F)(F)F)nc2)C1` [Example 613], the “DHX9 Biochemical Max Inhibition” value was determined as 70.3 and the IC50 amounted to 0.0042 µM.

As for `Cn1cc(C(=O)Nc2cc(Cl)cc(NS(C)(=O)=O)c2)cc1-c1ncc(OC2CN(CC(F)F)C2)cc1F` [Example 614], the “DHX9 Biochemical Max Inhibition” value was found to be 70.4 and the IC50 was found to be 0.0146 µM.

Regarding `Cn1cc(C(=O)Nc2cc(Cl)cc(NS(C)(=O)=O)c2)cc1-c1ncc(OC2CN(CC(F)(F)F)C2)cc1F` [Example 615], the “DHX9 Biochemical Max Inhibition” value is reported as 73.9 and the IC50 came to 0.0526 µM.

As to `CNc1cnc(-c2cc(C(=O)Nc3cc(Cl)cc(NS(C)(=O)=O)c3)sc2C)nc1` [Example 616, N-(3-chloro-5-methanesulfonamidophenyl)-5-methyl-4-[5-(methylamino)pyrimidin-2-yl]thiophene-2-carboxamide], the “DHX9 Biochemical Max Inhibition” value is given as 84.2 and the IC50 stood at 0.0114 µM.

Consider `Cc1sc(C(=O)Nc2cc(Cl)cc(NS(C)(=O)=O)c2)cc1-c1ncc(C2CCN(CC(F)(F)F)CC2)cc1F` [Example 618], for which the “DHX9 Biochemical Max Inhibition” value is on record as 66.6 and the IC50 was 0.0592 µM.

Consider `Cn1cc(C(=O)Nc2cc(Cl)cc(NS(C)(=O)=O)c2)cc1-c1ccc(C2CCN(CC(F)(F)F)CC2)cn1` [Example 619], for which the “DHX9 Biochemical Max Inhibition” value amounted to 81.3 and the IC50 worked out at 0.178 µM.

Consider `Cc1sc(C(=O)Nc2cc(Cl)cc(NS(C)(=O)=O)c2)cc1-c1ncccc1OCc1cncc(F)c1` [Example 621], for which the “DHX9 Biochemical Max Inhibition” value came to 74.4 and the IC50 was found to be 0.0068 µM.

For the compound `CCS(=O)(=O)Nc1cc(Cl)cc(NC(=O)c2cc(-c3ncc(F)cc3OCc3nccs3)c(C)s2)c1` [Example 622], the “DHX9 Biochemical Max Inhibition” value amounted to 62.9 and the IC50 was 0.023 µM.

Turning to `CCS(=O)(=O)Nc1cc(Cl)cc(NC(=O)c2cc(-c3ncc(F)cc3OCc3cncnc3)c(C)s2)c1` [Example 623], the “DHX9 Biochemical Max Inhibition” value was found to be 94.5 and the IC50 was found to be 0.0039 µM.

On to `Cc1ccnc(OCc2cncc(F)c2)c1-c1cc(C(=O)Nc2cc(Cl)cc(NS(C)(=O)=O)c2)cn1C` [Example 624], for which the “DHX9 Biochemical Max Inhibition” value is 97.2 and the IC50 stood at 0.0089 µM.

As for `Cn1cc(C(=O)Nc2cc(Cl)cc(NS(C)(=O)=O)c2)cc1-c1ncc(F)cc1OCc1nnnn1C` [Example 625], the “DHX9 Biochemical Max Inhibition” value turned out to be 87.8 and the IC50 came to 0.0126 µM.

Regarding `Cc1sc(C(=O)Nc2cc(Cl)cc(NS(=O)(=O)CCO)c2)cc1-c1ncccc1OCc1cncc(F)c1` [Example 626], the “DHX9 Biochemical Max Inhibition” value was found to be 75.7 and the IC50 is 0.0042 µM.

As for `Cn1cc(C(=O)Nc2cc(Cl)cc(NS(C)(=O)=O)c2)cc1-c1ncncc1OCc1cc(F)cc(F)c1` [Example 627], the “DHX9 Biochemical Max Inhibition” value is on record as 75.8 and the IC50 worked out at 0.0294 µM.

As for `Cc1sc(C(=O)Nc2cc(Cl)cc(NS(C)(=O)=O)c2)cc1-c1ncc(OC2CN(C)C2)cc1F` [Example 635], the “DHX9 Biochemical Max Inhibition” value came to 68.5 and the IC50 came out at 0.002 µM.

For the compound `Cc1sc(C(=O)Nc2cc(Cl)cc(NS(C)(=O)=O)c2)cc1-c1ncc(OC2CNC2)cn1` [Example 636, 4-[5-(azetidin-3-yloxy)pyrimidin-2-yl]-N-(3-chloro-5-methanesulfonamidophenyl)-5-methylthiophene-2-carboxamide], the “DHX9 Biochemical Max Inhibition” value was 70.3 and the IC50 was 0.0122 µM.

Take `Cc1sc(C(=O)Nc2cc(Cl)cc(NS(C)(=O)=O)c2)cc1-c1ncc(OC2CNC2)cc1F` [Example 637]: the “DHX9 Biochemical Max Inhibition” value is 71.4 and the IC50 is 0.0034 µM.

Turning to `CN1CC(Oc2cnc(-c3cc(C(=O)Nc4cc(Cl)cc(NS(C)(=O)=O)c4)cn3CC(F)(F)F)c(F)c2)C1` [Example 638], the “DHX9 Biochemical Max Inhibition” value came to 70.5 and the IC50 amounted to 0.0139 µM.
